Measured values from patent US20100249055A1, “CLOFARABINE PHOSPHOLIPID DERIVATIVES” (HEIDELBERG PHARMA AG, priority 2007, published 2010).

How the values were obtained:
[1] = tested on: human cervix carcinoma xenograft KB-3-1; assay: Antitumor activity in human cervix carcinoma xenograft model (KB-3-1) in vivo; set-up: species or system nude mice; conditions: for Tumor inhibition / Tumor weight: day 30; for Tumor weight: median
Procedure: Tumor bearing mice were randomized on day 8 after KB-3-1 tumor cell inoculation and were distributed to treatment groups of n=7 animals per group. Treatment was started on day 8. The animals were treated orally once daily for 5 consecutive days with 1 or 6. Dosages included 50 and 25% of the Maximum Tolerable Doses (MTD's). Control animals received the vehicle (water). On day 30, the primary tumors were explanted and the tumor weights were determined.

[2] = Oral bioavailability and pharmacokinetics in mice (plasma, mass spectroscopy); conditions: for Bioavailability F (AUC(0-inf.)): 30 mg/kg po vs iv; for AUC(0-inf.) (calc.) / AUC(0-t) (obs.) / Cmax (obs.) / Tmax (obs.) / Vd / t½α / t½β: WFI
Procedure: Mice received 30 mg/kg of 1 or 6 intravenously or orally. For each time point blood of 3 mice has been collected, plasma prepared and the concentration of 1 or 6 has been determined by mass spectroscopy. […] Bioavailability and the area under the curve (Auc(0-t) [μg h/L]=AUC) have been determined.

[3] = 25% MTD, 100 mg/kg/day orally once daily for 5 days
[4] = 50% MTD, 200 mg/kg/day orally once daily for 5 days
[5] = 25% MTD, 100 mg/kg/day orally once daily for 5 days from day 8
[6] = 50% MTD, 200 mg/kg/day orally once daily for 5 days from day 8
[7] = mice, 30 mg/kg iv, experiment P06.0068
[8] = mice, 30 mg/kg po, experiment P06.0068
[9] = mice, 30 mg/kg po, experiment P06.0069
[10] = mice, 30 mg/kg iv, experiment P06.0069

CCCCCCCCCCCCOCC(COP(=O)(O)OC[C@H]1O[C@@H](n2cnc3c(N)nc(Cl)nc32)C(F)[C@H]1O)OCCCCCCCCCC (stereo partly drawn) [Compound 1, [2-Chloro-9-(2′-deoxy-2′-fluoro-β-D-arabinofuranosyl)adenine]-5′-phosphoric acid-(2-decyloxy-3-dodecyloxy)propyl ester]
Tumor size versus control animals ([1]; 18 days after termination of treatment (day 30)): significantly (p<0.01) smaller tumors than control animals | Tumor inhibition [1, 3]: 43% | Tumor inhibition [1, 4]: 93% | Tumor weight [1, 5]: 1.60 g | Tumor weight [1, 6]: 0.19 g | Bioavailability F (AUC(0-inf.)) ([2]; mice, experiment P06.0069): 28.5% | AUC ([2]; mouse, plasma, po, 30 mg/kg): 88.9 µg·h/mL

CCCCCCCCCCCCSCC(COP(=O)(O)OC[C@H]1O[C@@H](n2cnc3c(N)nc(Cl)nc32)[C@@H](F)[C@@H]1O)OCCCCCCCCCC (stereo partly shown) [Compound 6]
Tumor inhibition [1, 3]: 31% | Tumor inhibition [1, 4]: 74% | Tumor weight [1, 5]: 1.91 g | Tumor weight [1, 6]: 0.73 g | AUC(0-inf.) (calc.) [2, 7]: 841.7 µg·h/mL | AUC(0-t) (obs.) [2, 7]: 823.424 µg·h/mL | Cmax (obs.) [2, 7]: 673387 ng/mL | Tmax (obs.) [2, 7]: 0.0 h | Vd [2, 7]: 0.26 L/kg | t½α [2, 7]: 0.4 h | t½β [2, 7]: 5.1 h | AUC after oral application ([2]; mice, 30 mg/kg orally, AUC(0-t)): 213 µg·h/mL | Bioavailability F (AUC(0-inf.)) ([2]; mice, experiment P06.0068): 28.5% | AUC(0-inf.) (calc.) [2, 8]: 239.878 µg·h/mL | AUC(0-t) (obs.) [2, 8]: 236.496 µg·h/mL | Cmax (obs.) [2, 8]: 19517 ng/mL | Tmax (obs.) [2, 8]: 4.0 h | Vd [2, 8]: 1.30 L/kg | t½α [2, 8]: 0.5 h | t½β [2, 8]: 7.2 h | AUC(0-inf.) (calc.) [2, 9]: 225.914 µg·h/mL | AUC(0-t) (obs.) [2, 9]: 212.685 µg·h/mL | Cmax (obs.) [2, 9]: 23571 ng/mL | Tmax (obs.) [2, 9]: 3.0 h | Vd [2, 9]: 1.10 L/kg | t½α [2, 9]: 0.9 h | t½β [2, 9]: 5.7 h

[2-Chloro-9-(2′-deoxy-2′-fluoro-β-D-arabinofuranosyl)adenine]-5′-phosphoric acid-(2-decyloxy-3-dodecyloxy)propyl ester [Compound 1]
AUC(0-inf.) (calc.) [2, 10]: 320.025 µg·h/mL | AUC(0-t) (obs.) [2, 10]: 315.695 µg·h/mL | Cmax (obs.) [2, 10]: 486156 ng/mL | Tmax (obs.) [2, 10]: 0.02 h | Bioavailability F (AUC(0-inf.)) ([2]; mice, experiment P06.0069): 28.5% | AUC(0-inf.) (calc.) [2, 9]: 91.31 µg·h/mL | AUC(0-t) (obs.) [2, 9]: 88.927 µg·h/mL | Cmax (obs.) [2, 9]: 13256 ng/mL | Tmax (obs.) [2, 9]: 2.0 h
